From publication PMC5218480 (PLoS ONE, 2017)

Test system: MV-4-11 cells
Test: Gene expression microarray analysis (Affymetrix PrimeView) and GSEA
Assay type: cell-based, human
Design: RFU PODN (11730768_x_at) / Fold change /veh PODN (11730768_x_at) / RFU LINC00158 (11744669_a_at) / Fold change /veh LINC00158 (11744669_a_at) / RFU DUSP10 (11751237_a_at) / Fold change /veh DUSP10 (11751237_a_at) / RFU ID3 (11757404_x_at) / Fold change /veh ID3 (11757404_x_at) / RFU PLEKHG5 (11737974_s_at) / Fold change /veh PLEKHG5 (11737974_s_at) / RFU LRRC4B (11730491_at) / Fold change /veh LRRC4B (11730491_at) / RFU GIMAP4 (11747438_a_at) / Fold change /veh GIMAP4 (11747438_a_at) / RFU KRT8 (11758183_x_at) / Fold change /veh KRT8 (11758183_x_at) / RFU CNN1 (11734310_a_at) / Fold change /veh CNN1 (11734310_a_at) / RFU VPS37D (11726825_at) / Fold change /veh VPS37D (11726825_at) / RFU C10orf10 (11716522_x_at) / Fold change /veh C10orf10 (11716522_x_at) / RFU KIR2DL2 /// KIR2DL4 /// KIR2DL5A /// KIR2DL5B /// KIR2DS1 /// KIR2DS2 /// KIR2DS3 /// KIR2DS4 /// KIR3DL3 /// KIR3DL3 /// KIR3DS1 (11738374_at) / Fold change /veh KIR2DL2 /// KIR2DL4 /// KIR2DL5A /// KIR2DL5B /// KIR2DS1 /// KIR2DS2 /// KIR2DS3 /// KIR2DS4 /// KIR3DL3 /// KIR3DL3 /// KIR3DS1 (11738374_at) / RFU C1QL1 (11718748_at) / Fold change /veh C1QL1 (11718748_at) / RFU TMPRSS4 (11747572_a_at) / Fold change /veh TMPRSS4 (11747572_a_at) / RFU HAMP (11756126_x_at) / Fold change /veh HAMP (11756126_x_at) / RFU RNFT2 (11725882_a_at) / Fold change /veh RNFT2 (11725882_a_at) / RFU NR4A2 (11747474_a_at) / Fold change /veh NR4A2 (11747474_a_at) / RFU ABCC12 (11746883_a_at) / Fold change /veh ABCC12 (11746883_a_at) / RFU TMEM136 (11760407_x_at) / Fold change /veh TMEM136 (11760407_x_at) / RFU CLDN22 /// WWC2 (11732394_at) / Fold change /veh CLDN22 /// WWC2 (11732394_at) / RFU HLA-DPB1 (11760878_x_at) / Fold change /veh HLA-DPB1 (11760878_x_at) / RFU SPINT1 (11716480_a_at) / Fold change /veh SPINT1 (11716480_a_at) / RFU GAP43 (11754022_s_at) / Fold change /veh GAP43 (11754022_s_at) / RFU A4GNT (11735810_at) / Fold change /veh A4GNT (11735810_at) / RFU PRB3 (11715151_x_at) / Fold change /veh PRB3 (11715151_x_at) / RFU TUBB4B (11761932_at) / Fold change /veh TUBB4B (11761932_at) / RFU CAPN14 (11732068_a_at) / Fold change /veh CAPN14 (11732068_a_at) / RFU TMCC2 (11721928_a_at) / Fold change /veh TMCC2 (11721928_a_at) / RFU IRGQ (11745062_a_at) / Fold change /veh IRGQ (11745062_a_at) / RFU FAM174B (11720279_a_at) / Fold change /veh FAM174B (11720279_a_at) / RFU TMPRSS4 (11748680_a_at) / Fold change /veh TMPRSS4 (11748680_a_at) / RFU FAM212B (11763350_a_at) / Fold change /veh FAM212B (11763350_a_at) / RFU PLEKHG5 (11743358_a_at) / Fold change /veh PLEKHG5 (11743358_a_at) / RFU ZSCAN30 (11745921_a_at) / Fold change /veh ZSCAN30 (11745921_a_at) / RFU CMKLR1 (11741424_a_at) / Fold change /veh CMKLR1 (11741424_a_at) / RFU LOC101060620 /// MAPK8IP1 (11723275_at) / Fold change /veh LOC101060620 /// MAPK8IP1 (11723275_at) / RFU SPTSSB (11747773_x_at) / Fold change /veh SPTSSB (11747773_x_at) / RFU PRSS12 (11739890_at) / Fold change /veh PRSS12 (11739890_at) / RFU BIN1 (11741810_x_at) / Fold change /veh BIN1 (11741810_x_at) / RFU WNT11 (11732464_a_at) / Fold change /veh WNT11 (11732464_a_at) / RFU C10orf10 (11716521_a_at) / Fold change /veh C10orf10 (11716521_a_at) / RFU C5orf56 (11738089_at) / Fold change /veh C5orf56 (11738089_at) / RFU CYB561 (11721691_x_at) / Fold change /veh CYB561 (11721691_x_at) / RFU ANKRD19P (11752326_a_at) / Fold change /veh ANKRD19P (11752326_a_at) / RFU OR2T12 /// OR2T33 /// OR2T8 (11738714_s_at) / Fold change /veh OR2T12 /// OR2T33 /// OR2T8 (11738714_s_at) / RFU VCAN (11748164_a_at) / Fold change /veh VCAN (11748164_a_at) / RFU JSRP1 (11732532_at) / Fold change /veh JSRP1 (11732532_at) / RFU KRTAP10-11 (11738290_x_at) / Fold change /veh KRTAP10-11 (11738290_x_at) / RFU MYO3A (11730013_a_at) / Fold change /veh MYO3A (11730013_a_at) / RFU EBF3 (11725865_a_at) / Fold change /veh EBF3 (11725865_a_at) / RFU CAMK2N1 (11719241_x_at) / Fold change /veh CAMK2N1 (11719241_x_at) / RFU C5orf56 (11738088_a_at) / Fold change /veh C5orf56 (11738088_a_at) / RFU OLFML3 (11715873_a_at) / Fold change /veh OLFML3 (11715873_a_at) / RFU LOC100653217 /// NTM (11731650_a_at) / Fold change /veh LOC100653217 /// NTM (11731650_a_at) / RFU MAPK11 (11762145_a_at) / Fold change /veh MAPK11 (11762145_a_at) / RFU FIZ1 (11724087_x_at) / Fold change /veh FIZ1 (11724087_x_at) / RFU OASL (11726364_x_at) / Fold change /veh OASL (11726364_x_at) / RFU SOX15 (11748057_x_at) / Fold change /veh SOX15 (11748057_x_at) / RFU CD79A (11719716_a_at) / Fold change /veh CD79A (11719716_a_at) / RFU HIST1H1D (11736915_at) / Fold change /veh HIST1H1D (11736915_at) / RFU CASKIN2 (11723855_a_at) / Fold change /veh CASKIN2 (11723855_a_at) / RFU LOC730098 (11760151_x_at) / Fold change /veh LOC730098 (11760151_x_at) / RFU OR4N2 (11742367_at) / Fold change /veh OR4N2 (11742367_at) / RFU PRRT2 (11749266_a_at) / Fold change /veh PRRT2 (11749266_a_at) / RFU SNX32 (11753110_a_at) / Fold change /veh SNX32 (11753110_a_at) / RFU CDHR5 (11726645_a_at) / Fold change /veh CDHR5 (11726645_a_at) / RFU RCAN1 (11760418_a_at) / Fold change /veh RCAN1 (11760418_a_at) / RFU FAM167A (11723789_a_at) / Fold change /veh FAM167A (11723789_a_at) / RFU FAM26E (11764081_at) / Fold change /veh FAM26E (11764081_at) / RFU ISYNA1 (11749810_s_at) / Fold change /veh ISYNA1 (11749810_s_at) / RFU ACY1 (11761880_at) / Fold change /veh ACY1 (11761880_at) / RFU 11764098_at / Fold change /veh 11764098_at / RFU SAMD14 (11745864_x_at) / Fold change /veh SAMD14 (11745864_x_at) / RFU NPB (11741838_a_at) / Fold change /veh NPB (11741838_a_at) / RFU TMPRSS6 (11731388_a_at) / Fold change /veh TMPRSS6 (11731388_a_at) / RFU KRTAP10-2 (11738614_at) / Fold change /veh KRTAP10-2 (11738614_at) / RFU ARHGAP8 /// PRR5-ARHGAP8 (11727945_x_at) / Fold change /veh ARHGAP8 /// PRR5-ARHGAP8 (11727945_x_at) / RFU KRTAP5-7 /// NADSYN1 (11734609_at) / Fold change /veh KRTAP5-7 /// NADSYN1 (11734609_at) / RFU RASL12 (11751679_a_at) / Fold change /veh RASL12 (11751679_a_at) / RFU CDKN2B (11736163_a_at) / Fold change /veh CDKN2B (11736163_a_at) / RFU PRF1 (11729649_at) / Fold change /veh PRF1 (11729649_at) / RFU, ZNF638 /// ZNF638-IT1 / Fold change vs veh, ZNF638 /// ZNF638-IT1 / RFU, PANK3 / Fold change vs veh, PANK3 / RFU, SH3YL1 / Fold change vs veh, SH3YL1 / RFU, ZEB2 / Fold change vs veh, ZEB2 / RFU, NRIP1 / Fold change vs veh, NRIP1 / RFU, PTTG1IP / Fold change vs veh, PTTG1IP / RFU, CAPN2 / Fold change vs veh, CAPN2 / RFU, MED14 / Fold change vs veh, MED14 / RFU, SNORA58 / Fold change vs veh, SNORA58 / RFU, C1orf63 / Fold change vs veh, C1orf63 / RFU, LRRFIP1 / Fold change vs veh, LRRFIP1 / RFU, NDUFAF7 / Fold change vs veh, NDUFAF7 / RFU, SLC12A2 / Fold change vs veh, SLC12A2 / RFU, IBTK / Fold change vs veh, IBTK / RFU, ESF1 / Fold change vs veh, ESF1 / Fold change vs veh, TMEM50B / RFU, TAOK1 / Fold change vs veh, TAOK1 / RFU, ACBD3 / Fold change vs veh, ACBD3 / RFU, TMA16 / Fold change vs veh, TMA16 / RFU, RWDD3 / Fold change vs veh, RWDD3 / RFU, BCAT1 / Fold change vs veh, BCAT1 / RFU, EDEM3 / Fold change vs veh, EDEM3 / RFU, TMEM33 / Fold change vs veh, TMEM33 / RFU, WDR75 / Fold change vs veh, WDR75 / RFU, AHCTF1 / Fold change vs veh, AHCTF1 / RFU, TFRC / Fold change vs veh, TFRC / RFU, ZDHHC17 / Fold change vs veh, ZDHHC17 / RFU, NOM1 / Fold change vs veh, NOM1 / RFU, ARL8B / Fold change vs veh, ARL8B / RFU, ZBTB11 / Fold change vs veh, ZBTB11 / RFU, TAMM41 / Fold change vs veh, TAMM41 / RFU, KIAA1704 /// LOC100996395 / Fold change vs veh, KIAA1704 /// LOC100996395 / RFU, ING1 / Fold change vs veh, ING1 / RFU, TRMT61B / Fold change vs veh, TRMT61B / RFU, FUBP3 / Fold change vs veh, FUBP3 / RFU, TP53 / Fold change vs veh, TP53 / RFU, TNKS2 / Fold change vs veh, TNKS2 / RFU, ZFP14 / Fold change vs veh, ZFP14 / RFU, ACTR2 / Fold change vs veh, ACTR2 / RFU, PPP3R1 / Fold change vs veh, PPP3R1 / RFU, PIK3R1 / Fold change vs veh, PIK3R1 / RFU, HNRNPA1 / Fold change vs veh, HNRNPA1 / RFU, RNF170 / Fold change vs veh, RNF170 / RFU, ZNF28 / Fold change vs veh, ZNF28 / RFU, RNGTT / Fold change vs veh, RNGTT / RFU, OGT / Fold change vs veh, OGT / RFU, BRD1 / Fold change vs veh, BRD1 / RFU, MARS / Fold change vs veh, MARS / RFU, ZNF655 / Fold change vs veh, ZNF655 / RFU, FAHD1 / Fold change vs veh, FAHD1 / RFU, BDP1 / Fold change vs veh, BDP1 / RFU, LRRCC1 / Fold change vs veh, LRRCC1 / RFU, ARID1A / Fold change vs veh, ARID1A / RFU, ZNF146 / Fold change vs veh, ZNF146 / RFU, ZNF330 / Fold change vs veh, ZNF330 / RFU, GPN3 / Fold change vs veh, GPN3 / RFU, C9orf123 / Fold change vs veh, C9orf123 / RFU, N4BP2L2 / Fold change vs veh, N4BP2L2 / RFU, ARFIP1 / Fold change vs veh, ARFIP1 / RFU, FAM179B / Fold change vs veh, FAM179B / RFU, BCL10 / Fold change vs veh, BCL10 / RFU, UHRF1BP1L / Fold change vs veh, UHRF1BP1L / RFU, BET1 / Fold change vs veh, BET1 / RFU, CNOT2 / Fold change vs veh, CNOT2 / RFU, ZNF268 / Fold change vs veh, ZNF268 / Fold change vs veh, ZNF507 / RFU, DGCR2 / Fold change vs veh, DGCR2 / RFU, WDSUB1 / Fold change vs veh, WDSUB1 / Fold change vs veh, HSP90B1 /// MIR3652 / RFU, ADSS / Fold change vs veh, ADSS / RFU, GK / Fold change vs veh, GK / RFU, ZNF148 / Fold change vs veh, ZNF148 / RFU, TAF9 / Fold change vs veh, TAF9 / RFU, SLC1A5 / Fold change vs veh, SLC1A5 / RFU, SLMO2 / Fold change vs veh, SLMO2 / RFU, ABCC4 / Fold change vs veh, ABCC4 / RFU, LOC101060439 /// RAP1B / Fold change vs veh, LOC101060439 /// RAP1B / RFU, RFX7 / Fold change vs veh, RFX7 / RFU, GTPBP10 / Fold change vs veh, GTPBP10 / RFU, CNEP1R1 / Fold change vs veh, CNEP1R1 / RFU, BIVM-ERCC5 /// ERCC5 / Fold change vs veh, BIVM-ERCC5 /// ERCC5 / RFU, ILF3 / Fold change vs veh, ILF3 / RFU 11762660_at / Fold change /veh 11762660_at / RFU VCAN (11757783_s_at) / Fold change /veh VCAN (11757783_s_at) / RFU DDX43 (11728927_at) / Fold change /veh DDX43 (11728927_at) / RFU KRT8 (11758188_x_at) / Fold change /veh KRT8 (11758188_x_at) / RFU NKD1 (11759106_at) / Fold change /veh NKD1 (11759106_at) / RFU SRD5A1 (11742802_a_at) / Fold change /veh SRD5A1 (11742802_a_at) / RFU TPSAB1 /// TPSB2 (11721975_s_at) / Fold change /veh TPSAB1 /// TPSB2 (11721975_s_at) / RFU GSTM3 (11746129_a_at) / Fold change /veh GSTM3 (11746129_a_at) / RFU IL23R (11737362_x_at) / Fold change /veh IL23R (11737362_x_at) / RFU TMEM51 (11727254_a_at) / Fold change /veh TMEM51 (11727254_a_at) / RFU PIWIL2 (11732686_x_at) / Fold change /veh PIWIL2 (11732686_x_at) / RFU ORM1 (11744905_x_at) / Fold change /veh ORM1 (11744905_x_at) / RFU CCDC152 (11743942_at) / Fold change /veh CCDC152 (11743942_at) / RFU ECM1 (11717891_a_at) / Fold change /veh ECM1 (11717891_a_at) / RFU IL23R (11748794_a_at) / Fold change /veh IL23R (11748794_a_at) / RFU TNFAIP8L3 (11732012_x_at) / Fold change /veh TNFAIP8L3 (11732012_x_at) / RFU MBOAT4 (11741988_at) / Fold change /veh MBOAT4 (11741988_at) / RFU 11764193_at / Fold change /veh 11764193_at / RFU TMEM53 (11763286_at) / Fold change /veh TMEM53 (11763286_at) / RFU MAGEB2 (11727129_at) / Fold change /veh MAGEB2 (11727129_at) / RFU TMEM200A (11744735_a_at) / Fold change /veh TMEM200A (11744735_a_at) / RFU CCDC152 (11751479_a_at) / Fold change /veh CCDC152 (11751479_a_at) / RFU FAM211A (11726209_a_at) / Fold change /veh FAM211A (11726209_a_at) / RFU RGS16 (11746705_a_at) / Fold change /veh RGS16 (11746705_a_at) / RFU VCAN (11755009_s_at) / Fold change /veh VCAN (11755009_s_at) / RFU RHOB (11743442_s_at) / Fold change /veh RHOB (11743442_s_at) / RFU RGS16 (11720943_a_at) / Fold change /veh RGS16 (11720943_a_at) / RFU RGS16 (11720944_at) / Fold change /veh RGS16 (11720944_at) / RFU, VPS4B / Fold change vs veh, VPS4B / RFU, CREB1 / Fold change vs veh, CREB1 / RFU, DNAJC13 / Fold change vs veh, DNAJC13 / RFU, GNAQ / Fold change vs veh, GNAQ / RFU, CDK5R1 / Fold change vs veh, CDK5R1 / RFU, ZRANB3 / Fold change vs veh, ZRANB3 / RFU, CUL4A / Fold change vs veh, CUL4A / RFU, CCNY / Fold change vs veh, CCNY / RFU, UFL1 / Fold change vs veh, UFL1 / RFU, COG3 / Fold change vs veh, COG3 / RFU, DIAPH2 / Fold change vs veh, DIAPH2 / RFU, SKA2 / Fold change vs veh, SKA2 / RFU, AFF3 / Fold change vs veh, AFF3 / RFU, LMF1 / Fold change vs veh, LMF1 / RFU, IPO11 / Fold change vs veh, IPO11 / RFU, DFFB / Fold change vs veh, DFFB / RFU, FOXP1 / Fold change vs veh, FOXP1 / RFU, CARD8 / Fold change vs veh, CARD8 / RFU, STRN3 / Fold change vs veh, STRN3 / RFU, ADK / Fold change vs veh, ADK / RFU, RASSF2 / Fold change vs veh, RASSF2 / RFU, WIPF1 / Fold change vs veh, WIPF1 / RFU, LARP1B / Fold change vs veh, LARP1B / RFU, RASA1 / Fold change vs veh, RASA1 / RFU, RB1 / Fold change vs veh, RB1 / RFU, PPFIA1 / Fold change vs veh, PPFIA1 / RFU, MAT2A / Fold change vs veh, MAT2A / RFU, CCT5 / Fold change vs veh, CCT5 / RFU, WDR92 / Fold change vs veh, WDR92 / RFU, CUX1 / Fold change vs veh, CUX1 / RFU, TTC7A / Fold change vs veh, TTC7A / RFU, TMEM135 / Fold change vs veh, TMEM135 / RFU, DEPTOR / Fold change vs veh, DEPTOR / RFU, CPM / Fold change vs veh, CPM / RFU, DNAJB6 / Fold change vs veh, DNAJB6 / RFU, CACNA2D3 / Fold change vs veh, CACNA2D3 / RFU, DTX4 / Fold change vs veh, DTX4 / RFU, TFCP2 / Fold change vs veh, TFCP2 / RFU, GMCL1 /// GMCL1P1 / Fold change vs veh, GMCL1 /// GMCL1P1 / RFU, AEBP2 / Fold change vs veh, AEBP2 / RFU, SNHG1 /// SNORD22 /// SNORD25 /// SNORD26 /// SNORD27 /// SNORD28 /// SNORD29 /// SNORD31 / Fold change vs veh, SNHG1 /// SNORD22 /// SNORD25 /// SNORD26 /// SNORD27 /// SNORD28 /// SNORD29 /// SNORD31 / Fold change (Aza/veh), C12orf56 (ProbeSet 11735607_a_at) / Fold change (ACY-1035/veh), C12orf56 (ProbeSet 11735607_a_at) / Fold change (Aza/veh), FGFR1OP (ProbeSet 11751329_s_at) / Fold change (ACY-1035/veh), FGFR1OP (ProbeSet 11751329_s_at) / Fold change (Aza/veh), VPS36 (ProbeSet 11739960_a_at) / Fold change (ACY-1035/veh), VPS36 (ProbeSet 11739960_a_at) / RFU SYPL1 (11715823_x_at) / Fold change /veh SYPL1 (11715823_x_at) / RFU IGFBP7 (11715501_s_at) / Fold change /veh IGFBP7 (11715501_s_at) / RFU REEP3 (11722064_at) / Fold change /veh REEP3 (11722064_at) / RFU IGLL1 (11728026_x_at) / Fold change /veh IGLL1 (11728026_x_at): dose or concentration left out as unconfirmed
Settings: MV-4-11 cells, 48 hours

Nc1ccc(-c2cccs2)cc1NC(=O)c1ccc2c(c1)cc(C1CC1)n2CCN1CCOCC1 [ACY-1035]
Fold change /veh A4GNT (11735810_at): 1.01
